Data: US20050215490A1, “Polyene polyketides and methods of treating bacterial infections” (Ecopia BioSciences, Inc., priority 2003, published 2005)

Assay: in vivo
Settings: female, CD-1, mouse
Procedure: A. Toxicity: Acute toxicities were determined using CD-1 female mice (supplied by Charles River Laboratories, Wilmington, Mass.) having a bodyweight of 18-25 g, and about 6 weeks of age. Compounds 1 and 2 at doses ranging from 1 to 70 mg/kg (formulated in 20% propylene glycol/water for a total volume of 10 μL/g of weight) were administered intraperitoneal (i.p.) and intravenous (i.v.) to groups of 5 mice (5 mice per concentration, per mode of administration). Two groups of 3 mice were injected with vehicle only. Mice were observed immediately after injection, within 4 hours and once a day for the subsequent days. Acute toxicity studies of Compound 1 in mice indicated no observable effect and high dose tolerability: 70 mg/kg intraperitoneal and 50 mg/kg intravenous (an MTD of 250 mg/kg was also determined by oral administration). […] In vitro Haemolytic activity results are also shown in Table 7, along with the in vivo toxicity and efficacy of Compound 1.

CC(=CC=CC=CC=CC=CC(C)C(OC1OC(C(=O)O)C(O)C(O)C1O)C(C)=CC(C)CCCC=CC(C)CC=CCCCN(C)C(=N)N)C(=O)NC1=C(O)CCC1=O (centres unmarked) [Compound 1, 3,4,5-trihydroxy-6-[1-[11-(2-hydroxy-5-oxocyclopent-1-enylcarbamoyl)-1-methyldodeca-2,4,6,8,10-pentaenyl]-2,4,10-trimethyl-16-(N-methyl-guanidino)-hexadeca-2,8,12-trienyloxy]-tetrahydropyran-2-carboxylic acid]
MTD (ip): 70 mg/kg | MTD (po): 250 mg/kg
